Measured values from patent US20240400564A1 (Syndax Pharmaceuticals, Inc, priority 2021, published 2024).

Target: hERG (Homo sapiens, UniProt Q12809)
Assay: Patch clamp assay (hERG tail currents, whole-cell)
Protocol: The 35 mm culture dishes upon which cells were seeded at a density allowing single cells to be recorded were placed on the dish holder of the microscope and continuously perfused (at approximately 1 mL/min) with the bath solution described in section 4.6. All solutions applied to cells including the pipette solution were maintained at room temperature (19° C. to 30° C.). After formation of a Gigaohm seal between the patch electrodes and individual hERG stably transfected HEK 293 cells (pipette resistance range: 2.0 MS to 7.0 MS; seal resistance range: >1GΩ) the cell membrane across the pipette tip was ruptured to assure electrical access to the cell interior (whole-cell patch-configuration). In case the quality of the seal was poor, the process of seal formation was repeated with a different cell and a new pipette. As soon as a stable seal could be established, hERG outward tail currents were measured upon depolarization of the cell membrane to +20 mV for 2 s (activation of channels) from a holding potential of −80 mV and upon subsequent repolarization to −40 mV for 3 s. This voltage protocol (as shown below) was run at least 10 times at intervals of 10 s. If current density was judged to be too low for measurement, another cell was recorded.
During wash-in of the test item the voltage protocol indicated above was run continuously again at 10 s intervals until the steady-state level of block was reached.
The IC50 was determined by fitting the dose response curve with a 2-parameter logistic function (amax=100%).

Sequence of hERG (Q12809 whole entry): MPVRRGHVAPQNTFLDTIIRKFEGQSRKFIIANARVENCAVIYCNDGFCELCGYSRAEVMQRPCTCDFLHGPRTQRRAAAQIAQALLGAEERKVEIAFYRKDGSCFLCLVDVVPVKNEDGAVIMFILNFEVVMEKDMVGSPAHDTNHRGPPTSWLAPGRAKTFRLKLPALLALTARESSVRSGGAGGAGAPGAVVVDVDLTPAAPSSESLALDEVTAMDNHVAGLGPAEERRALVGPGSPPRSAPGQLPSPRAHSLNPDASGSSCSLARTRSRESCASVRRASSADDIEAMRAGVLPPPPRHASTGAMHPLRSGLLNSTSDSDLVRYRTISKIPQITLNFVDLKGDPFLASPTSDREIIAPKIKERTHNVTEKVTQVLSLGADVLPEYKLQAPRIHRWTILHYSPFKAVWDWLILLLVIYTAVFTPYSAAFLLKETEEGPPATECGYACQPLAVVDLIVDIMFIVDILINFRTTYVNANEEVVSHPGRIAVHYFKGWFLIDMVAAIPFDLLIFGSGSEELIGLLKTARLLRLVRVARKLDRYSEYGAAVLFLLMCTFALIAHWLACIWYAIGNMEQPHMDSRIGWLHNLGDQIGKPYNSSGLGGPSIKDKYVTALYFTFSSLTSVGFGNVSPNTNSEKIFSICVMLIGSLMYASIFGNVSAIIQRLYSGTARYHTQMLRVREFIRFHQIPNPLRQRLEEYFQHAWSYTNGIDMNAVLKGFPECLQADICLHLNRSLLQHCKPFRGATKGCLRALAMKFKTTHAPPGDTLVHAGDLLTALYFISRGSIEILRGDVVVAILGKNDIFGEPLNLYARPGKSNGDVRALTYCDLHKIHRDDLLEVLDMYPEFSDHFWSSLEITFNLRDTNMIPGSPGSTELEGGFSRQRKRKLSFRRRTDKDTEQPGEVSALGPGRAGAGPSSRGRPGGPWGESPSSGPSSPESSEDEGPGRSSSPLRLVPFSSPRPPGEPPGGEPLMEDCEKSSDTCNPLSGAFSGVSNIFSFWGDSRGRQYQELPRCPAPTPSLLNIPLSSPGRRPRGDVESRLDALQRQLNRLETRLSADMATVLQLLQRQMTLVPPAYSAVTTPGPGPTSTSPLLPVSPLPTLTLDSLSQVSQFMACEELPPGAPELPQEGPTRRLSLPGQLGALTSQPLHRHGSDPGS

| SMILES | hERG % Remaining (10 μM compound) | hERG % Remaining (30 μM compound) | hERG % Remaining (100 μM compound) |
| --- | --- | --- | --- |
| CCNS(=O)(=O)N[C@@H]1CC[C@@H](CN2CCC3(CC2)CN(c2ncncc2Oc2ccc(F)cc2C(=O)N(C(C)C)C2CC(F)(F)C2)C3)OC1 [Example 155, N-(3,3-Difluorocyclobutyl)-2-((4-(7-(((2S,5R)-5-((N-ethylsulfamoyl)amino)tetrahydro-2H-pyran-2-yl)methyl)-2,7-diazaspiro[3.5]nonan-2-yl)pyrimidin-5-yl)oxy)-5-fluoro-N-isopropylbenzamide] | +++ (≥66%) | ++ (233% and ≤66%) | – |
| C[C@@H]1COC[C@@H](C)N1C(=O)c1cc(F)ccc1Oc1cncnc1N1CC2(CCN(C[C@@H]3CC[C@@H](NS(=O)(=O)NCC4CC4)CO3)CC2)C1 [Example 158, (Cyclopropylmethyl)({[(3R,6S)-6-{[2-(5-{2-[(3R,5R)-3,5-dimethylmorpholine-4-carbonyl]-4-fluorophenoxy}pyrimidin-4-yl)-2,7-diazaspiro[3.5]nonan-7-yl]methyl}oxan-3-yl]sulfamoyl})amine] | – | +++ (≥66%) | – |
| C[C@@H]1COC[C@H](C)N1C(=O)c1cc(F)ccc1Oc1cncnc1N1CC2(CCN(C[C@@H]3CC[C@@H](NS(=O)(=O)N4CCC4)CO3)CC2)C1 [Example 161, N-((3R,6S)-6-((2-(5-(2-((3R,5S)-3,5-Dimethylmorpholine-4-carbonyl)-4-fluorophenoxy)pyrimidin-4-yl)-2,7-diazaspiro[3.5]nonan-7-yl)methyl)tetrahydro-2H-pyran-3-yl)azetidine-1-sulfonamide] | – | +++ (≥66%) | – |
| CC(C)N(C(=O)c1cc(F)ccc1Oc1cncnc1N1CC2(CCN(C[C@@H]3CC[C@@H](NS(=O)(=O)C4CC4)CO3)CC2)C1)[C@@H]1CCOC1 [Example 164, 2-((4-(7-(((2S,5R)-5-(Cyclopropanesulfonamido)tetrahydro-2H-pyran-2-yl)methyl)-2,7-diazaspiro[3.5]nonan-2-yl)pyrimidin-5-yl)oxy)-5-fluoro-N-isopropyl-N-((R)-tetrahydrofuran-3-yl)benzamide] | +++ (≥66%) | +++ (≥66%) | – |
| CCN(CC)S(=O)(=O)N[C@@H]1CC[C@@H](CN2CCC3(CC2)CN(c2ncncc2Oc2ccc(F)cc2C(=O)N(C(C)C)[C@@H]2CCOC2)C3)OC1 [Example 165, 2-((4-(7-(((2S,5R)-5-((N,N-Diethylsulfamoyl)amino)tetrahydro-2H-pyran-2-yl)methyl)-2,7-diazaspiro[3.5]nonan-2-yl)pyrimidin-5-yl)oxy)-5-fluoro-N-isopropyl-N-((R)-tetrahydrofuran-3-yl)benzamide] | +++ (≥66%) | ++ (233% and ≤66%) | – |
| CC(C)N(C(=O)c1cc(F)ccc1Oc1cncnc1N1CC2(CCN(C[C@@H]3CC[C@@H](NS(=O)(=O)N(C)C)CO3)CC2)C1)[C@@H]1CCOC1 [Example 167, 2-((4-(7-(((2S,5R)-5-((N,N-Dimethylsulfamoyl)amino)tetrahydro-2H-pyran-2-yl)methyl)-2,7-diazaspiro[3.5]nonan-2-yl)pyrimidin-5-yl)oxy)-5-fluoro-N-isopropyl-N-((R)-tetrahydrofuran-3-yl)benzamide] | – | +++ (≥66%) | +++ (≥66%) |
| CCN(CC)S(=O)(=O)N[C@@H]1CC[C@@H](CN2CCC3(CC2)CN(c2ncncc2Oc2ccc(F)cc2C(=O)N(C(C)C)[C@H]2CCOC2)C3)OC1 [Example 175, 2-((4-(7-(((2S,5R)-5-((N,N-Diethylsulfamoyl)amino)tetrahydro-2H-pyran-2-yl)methyl)-2,7-diazaspiro[3.5]nonan-2-yl)pyrimidin-5-yl)oxy)-5-fluoro-N-isopropyl-N-((S)-tetrahydrofuran-3-yl)benzamide] | ++ (233% and ≤66%) | + (<33%) | – |
| CC(C)N(CC#N)C(=O)c1cc(F)ccc1Oc1cncnc1N1CC2(CCN(C[C@@H]3CC[C@@H](NS(=O)(=O)N(C)C)CO3)CC2)C1 [Example 181, N-(Cyanomethyl)-2-((4-(7-(((2S,5R)-5-((N,N-dimethylsulfamoyl)amino)tetrahydro-2H-pyran-2-yl)methyl)-2,7-diazaspiro[3.5]nonan-2-yl)pyrimidin-5-yl)oxy)-5-fluoro-N-isopropylbenzamide] | – | +++ (≥66%) | – |
| CC(C)N(CC#N)C(=O)c1cc(F)ccc1Oc1cncnc1N1CC2(CCN(C[C@@H]3CC[C@@H](NS(=O)(=O)N4CCC4)CO3)CC2)C1 [Example 182, 2-((4-(7-(((2S,5R)-5-(Azetidine-1-sulfonamido)tetrahydro-2H-pyran-2-yl)methyl)-2,7-diazaspiro[3.5]nonan-2-yl)pyrimidin-5-yl)oxy)-N-(cyanomethyl)-5-fluoro-N-isopropylbenzamide] | – | +++ (≥66%) | – |
| CC(C)N(CCC#N)C(=O)c1cc(F)ccc1Oc1cncnc1N1CC2(CCN(C[C@@H]3CC[C@@H](NS(=O)(=O)N(C)C)CO3)CC2)C1 [Example 183, N-(2-Cyanoethyl)-2-((4-(7-(((2S,5R)-5-((N,N-dimethylsulfamoyl)amino)tetrahydro-2H-pyran-2-yl)methyl)-2,7-diazaspiro[3.5]nonan-2-yl)pyrimidin-5-yl)oxy)-5-fluoro-N-isopropylbenzamide] | – | +++ (≥66%) | – |
| CC(C)N(CC(F)F)C(=O)c1cc(F)ccc1Oc1nncnc1N1CC2(CCN(C[C@@H]3CC[C@@H](NS(=O)(=O)N4CCC4)CO3)CC2)C1 [Example 189, 2-((5-(7-(((2S,5R)-5-(Azetidine-1-sulfonamido)tetrahydro-2H-pyran-2-yl)methyl)-2,7-diazaspiro[3.5]nonan-2-yl)-1,2,4-triazin-6-yl)oxy)-N-(2,2-difluoroethyl)-5-fluoro-N-isopropylbenzamide] | – | +++ (≥66%) | – |
| CC(C)N(C(=O)c1cc(F)ccc1Oc1nncnc1N1CC2(CCN(C[C@@H]3CC[C@@H](NS(=O)(=O)C4CC4)CO3)CC2)C1)C(C)C [Example 196, 2-((5-(7-(((2S,5R)-5-(Cyclopropanesulfonamido)tetrahydro-2H-pyran-2-yl)methyl)-2,7-diazaspiro[3.5]nonan-2-yl)-1,2,4-triazin-6-yl)oxy)-5-fluoro-N,N-diisopropylbenzamide] | – | +++ (≥66%) | – |
| CCNS(=O)(=O)N[C@@H]1CC[C@@H](CN2CCC3(CC2)CN(c2ncnnc2Oc2ccc(F)cc2C(=O)N(C(C)C)C(C)C)C3)OC1 [Example 198, 2-((5-(7-(((2S,5R)-5-((N-Ethylsulfamoyl)amino)tetrahydro-2H-pyran-2-yl)methyl)-2,7-diazaspiro[3.5]nonan-2-yl)-1,2,4-triazin-6-yl)oxy)-5-fluoro-N,N-diisopropylbenzamide] | – | +++ (≥66%) | – |
| CC(C)N(C(=O)c1cc(F)ccc1Oc1nncnc1N1CC2(CCN(C[C@@H]3CC[C@@H](NS(=O)(=O)N4CCC4)CO3)CC2)C1)C(C)C [Example 199, 2-((5-(7-(((2S,5R)-5-(Azetidine-1-sulfonamido)tetrahydro-2H-pyran-2-yl)methyl)-2,7-diazaspiro[3.5]nonan-2-yl)-1,2,4-triazin-6-yl)oxy)-5-fluoro-N,N-diisopropylbenzamide] | – | +++ (≥66%) | – |
| C[C@@H]1COC[C@@H](C)N1C(=O)c1cc(F)ccc1Oc1cncnc1N1CC2(CCN(C[C@@H]3CC[C@@H](NS(=O)(=O)N4CCC[C@@H]4C)CO3)CC2)C1 [Example 209, (S)-N-((3R,6S)-6-((2-(5-(2-((3R,5R)-3,5-Dimethylmorpholine-4-carbonyl)-4-fluorophenoxy)pyrimidin-4-yl)-2,7-diazaspiro[3.5]nonan-7-yl)methyl)tetrahydro-2H-pyran-3-yl)-2-methylpyrrolidine-1-sulfonamide] | – | +++ (≥66%) | – |
| CC(C)N(CC(F)F)C(=O)c1cc(F)ccc1Oc1cncnc1N1CC2(CCN(C[C@@H]3CC[C@@H](NS(=O)(=O)N(C)CCCO)CO3)CC2)C1 [Example 214, N-(2,2-difluoroethyl)-5-fluoro-2-((4-(7-(((2S,5R)-5-((N-(3-hydroxypropyl)-N-methylsulfamoyl)amino)tetrahydro-2H-pyran-2-yl)methyl)-2,7-diazaspiro[3.5]nonan-2-yl)pyrimidin-5-yl)oxy)-N-isopropylbenzamide] | – | +++ (≥66%) | – |
| CC(C)N(C(=O)c1cc(F)ccc1Oc1cncnc1N1CC2(CCN(C[C@@H]3CC[C@@H](NS(=O)(=O)N4CC5(CCOC5)C4)CO3)CC2)C1)C(C)C [Example 223, 2-((4-(7-(((2S,5R)-5-(6-Oxa-2-azaspiro[3.4]octane-2-sulfonamido)tetrahydro-2H-pyran-2-yl)methyl)-2,7-diazaspiro[3.5]nonan-2-yl)pyrimidin-5-yl)oxy)-5-fluoro-N,N-diisopropylbenzamide] | – | +++ (≥66%) | – |
| CC(C)N(CC(F)F)C(=O)c1cc(F)ccc1Oc1cncnc1N1CC2(CCN(C[C@@H]3CC[C@@H](NS(=O)(=O)N(C)CCO)CO3)CC2)C1 [Example 239, N-(2,2-difluoroethyl)-5-fluoro-2-((4-(7-(((2S,5R)-5-((N-(2-hydroxyethyl)-N-methylsulfamoyl)amino)tetrahydro-2H-pyran-2-yl)methyl)-2,7-diazaspiro[3.5]nonan-2-yl)pyrimidin-5-yl)oxy)-N-isopropylbenzamide] | – | +++ (≥66%) | – |
| CC(C)N(CC(F)F)C(=O)c1cc(F)ccc1Oc1cncnc1N1CC2(CCN(C[C@@H]3CC[C@@H](NS(N)(=O)=O)CO3)CC2)C1 [Example 240, N-(2,2-Difluoroethyl)-5-fluoro-N-isopropyl-2-((4-(7-(((2S,5R)-5-(sulfamoylamino)tetrahydro-2H-pyran-2-yl)methyl)-2,7-diazaspiro[3.5]nonan-2-yl)pyrimidin-5-yl)oxy)benzamide] | – | +++ (≥66%) | – |
| CC(C)N(C(=O)c1cc(F)ccc1Oc1cncnc1N1CC2(CCN(C[C@@H]3CC[C@@H](NS(=O)(=O)N4CCC4)CO3)CC2)C1)C1COC1 [Example 248, 2-((4-(7-(((2S,5R)-5-(Azetidine-1-sulfonamido)tetrahydro-2H-pyran-2-yl)methyl)-2,7-diazaspiro[3.5]nonan-2-yl)pyrimidin-5-yl)oxy)-5-fluoro-N-isopropyl-N-(oxetan-3-yl)benzamide] | – | +++ (≥66%) | – |
